Measured values as given in patent US20120083522A1, “MODULATION OF INFLAMMATORY RESPONSES BY FACTOR XI” (Isis Pharmaceuitcals, inc., priority 2009, published 2012).
In the oligonucleotide strings, read from the 5' end, every base follows the letter of its sugar. An asterisk marks phosphorothioate; unmarked linkages are phosphodiester. Other units and linkages are bracketed, terminal groups are in braces. A string of capitals states the bases alone. e = 2'-O-(2-methoxyethyl) (MOE); [5mC] = 5-methylcytosine; d = 2'-deoxy (DNA)

Tests used:
[1] = system: collagen-induced arthritis (CIA) model; test: Arthritis Study A: collagen-induced arthritis (Example 11); type: in vivo, DBA/1J mice; details: DBA/1J mice, 20 mg/kg s.c. twice a week for 12 weeks
Protocol: The effect of inhibition of Factor XI and its role in fibrin accumulation in the joints leading to joint inflammation and rheumatoid arthritis was evaluated in a murine collagen-induced arthritis (CIA) model. […] Arthritis induced in mice administered collagen can be visually assessed and clinically scored as described by Marty et al. (J Clin Invest, 107:631-640, 2001) where 1 point is given for each swollen digit except the thumb (maximum, 4), 1 point is given for the tarsal or carpal joint, and 1 point is given for the metatarsal or metacarpal joint with a maximum score of […]. Each paw was graded individually, the cumulative clinical arthritic score per mouse reaching a maximum of 22 points
In a group of 15 DBA/1J mice, 20 mg/kg of ISIS 404071 was injected subcutaneously twice a week for 12 weeks. One control group of 15 mice was injected with 20 mg/kg of ISIS 403102 twice a week for 12 weeks. Two control groups of 15 mice each were injected with PBS twice a week for 12 weeks. Two weeks after the first oligonucleotide dose, type II bovine collagen (Chondrex Inc, Redmond, Wash.) was mixed with complete Freund's adjuvant, homogenized on ice and the emulsion, containing 100 μg of collagen, was injected subcutaneously at the base of the tail in the Factor XI group, the Factor VII group and one of the PBS control groups. A booster injection containing 100 μg collagen type II in incomplete Freund's adjuvant was injected subcutaneously at the base of the tail at a different injection site on day 21 after the first collagen injection in these groups.
Starting 35 days from the first collagen injection, mice in all groups were examined daily for the visual appearance of arthritis, such as swelling and stiffness, in peripheral joints. The results are presented in Table 20 (expressed as a percentage of the PBS control) and in FIGS. 1-3.
‘Incidence of CIA’ refers to the percentage of mice in each group that had CIA at day 40. The ‘percentage of paws affected’ refers to the percentage of paws out of a total of 60 paws in each group of mice that were affected with arthritis. ‘Average number of affected paws’ refers to the number of affected paws in mice that were diagnosed to have arthritis. The ‘clinical severity of CIA’ was scored as described by Marty et al. (J Clin Invest, 107:631-640, 2001) and as follows: 1 point for each swollen digit except the thumb (maximum, 4), 1 point for the tarsal or carpal joint, and 1 point for the metatarsal or metacarpal joint with a maximum score of 6 for a hindpaw and 5 for a forepaw. Each paw was graded individually, the cumulative clinical arthritic score per mouse reaching a maximum of 22 points.

[2] = system: DSS-induced colitis model; test: Colitis Study A: colon tissue histopathology; details: FIG. 8, listed as Factor VII ASO
[3] = system: DSS-induced colitis model; test: Colitis Study A: DSS-induced colitis, body weight and colon length (Example 12); type: in vivo, Swiss Webb mice
Protocol: The effect of antisense oligonucleotide inhibition of Factor XI and its role in ameliorating colitis was evaluated in a dextran sulfate sodium (DSS)-induced colitis model. Administration of DSS to animals is a well known method to induce […] and has been previously described by Okayasu et al. (Gastroenterology, 1990, 98:694-702), Cooper et al. (Lab Invest, 1993, 69:238-249) and Dieleman et al. (Clin Exp Immunol, 1998, 114:385-391).
In groups of 8 Swiss Webb mice, 20 mg/kg of ISIS 404071 or ISIS 403102 were injected subcutaneously twice a week for 3 weeks. Two control groups of 8 mice each were injected with PBS twice a week for 3 weeks. After the oligonucleotide treatments, 4% DSS in water was administered ad libitum for 6 days to the experimental groups and one PBS control group.
Mice in all groups were weighed at day 0. Mice were sacrificed at the end of the study on day 7 after DSS was administered and their body weights and colon lengths were measured. Results are presented in Table 24 (expressed as a percentage of the PBS control) and FIG. 7.
Colon length was assessed in the DSS-induced colitis mice.

[4] = Tolerability in Sprague-Dawley rats: liver function (Example 23); type: in vivo; set-up: Albumin: unit not given here; details: plasma, 50 mg/kg s.c. twice per week for 6 weeks
[5] = Tolerability in Sprague-Dawley rats: hematology assays (Example 23); type: in vivo; set-up: RBC / WBC / Neutrophil / Lymphocyte / Platelets: unit not given here; details: blood
[6] = Tolerability in CD1 mice: liver function (Example 21); type: in vivo; set-up: Albumin: unit not given here; details: plasma, 50 mg/kg s.c. twice per week for 6 weeks
[7] = Tolerability in Sprague-Dawley rats: kidney function (Example 23); type: in vivo
[8] = Tolerability in CD1 mice: kidney function (Example 21); type: in vivo; details: plasma, 50 mg/kg s.c. twice per week for 6 weeks
[9] = Tolerability in Sprague-Dawley rats: body and organ weights (Example 23); type: in vivo; details: 50 mg/kg s.c. twice per week for 6 weeks
[10] = Tolerability in CD1 mice: body and organ weights (Example 21); type: in vivo; details: 50 mg/kg s.c. twice per week for 6 weeks
Protocol: Body weight was measured at the onset of the study and subsequently twice per week. The body weights of the mice are presented in Table 87 and are expressed increase in grams over the PBS control weight taken before the start of treatment. Liver, spleen, and kidney weights were measured at the end of the study, and are also presented in Table 87 as percentage of the body weight.

[11] = Tolerability in CD1 mice: hematology assays (Example 21); type: in vivo; details: 50 mg/kg s.c. twice per week for 6 weeks
[12] = system: thrombin-antithrombin (TAT) complexes; test: Colitis Study E: TAT levels; type: in vivo, Swiss Webb mice; details: Colitis Study E, day 7
Protocol: (§1) Two groups 8 Swiss Webb mice were dosed with 40 mg/kg of ISIS 404071 injected subcutaneously twice a week for 3 weeks. Two control groups of 8 Swiss Webb mice were dosed with PBS subcutaneously twice a week for 3 weeks. Both the ASO treated groups and one of the control groups were then given 4% DSS in distilled water for 7 days ad libitum. One of the ASO and DSS treated groups was also given intravenous injections of 20 μg of recombinant human Factor XI protein (Haematologic Technologies Inc.) for 7 consecutive days, starting the day before DSS treatment. Mice were sacrificed at the end of the study on day 7 after DSS was administered.
Mice with dextran sodium sulfate (DSS)-induced colitis have elevated level of thrombin-antithrombin (TAT) complexes in blood (Anthoni, C. et al., J. Exp. Med. 204: 1595-1601, 2007) and is also observed in patients with ulcerative colitis (Kume, K. et al., Intern Med. 2007. 46: 1323-9). The effect of antisense inhibition of Factor XI on TAT levels in the […] was evaluated (Siemens Healthcare Diagnostics, Deerfield, Ill.) at the end of the study on day 7 after DSS was administered and the results are presented in Table 38.

bradykinin = test: Colitis Study E: bradykinin levels in colon; type: in vivo, Swiss Webb mice; details: Colitis Study E, day 7
Protocol: as §1
The effect of antisense inhibition of Factor XI on kinin levels in the colon was evaluated (Phoenix Pharmaceuticals, Burlingame, Calif.) at the end of the study on day 7 after DSS was administered and the results are presented in Table 40.

[13] = system: DSS-induced colitis model; test: Colitis Study E: weight change, colon length, stool analysis; type: in vivo, Swiss Webb mice; details: Colitis Study E, day 7
Protocol: as §1
Mice in all groups were weighed at day 0 and at the end of the study. […] Mice were sacrificed at the end of the study on day 7 after DSS was administered and their colon lengths were measured.

[14] = system: soluble CD40 ligand (CD40L); test: Colitis Study E: CD40L plasma levels; type: in vivo, Swiss Webb mice; details: Colitis Study E, day 7
Protocol: as §1
Plasma levels of soluble CD40 ligand (CD40L) are known to be elevated in cases of inflammatory bowel disease (Ludwiczek, O. et al., Int. J. Colorectal Disease. 2003. 18: 142-147) and may be considered a marker of intestinal inflammation. The effect of antisense inhibition of Factor XI on CD40L levels in the plasma was evaluated at the end of the study on day 7 after DSS was administered and the results are presented in Table 39. CD40L levels in plasma were measured by commercially available ELISA kits (Bender MedSystems, Vienna, Austria, eBioscience, San Diego, Calif.) according to the manufacture's protocols.

[15] = system: IFN-γ, IL-10, IL-12, IL-1β, IL-2, IL-4, IL-5, TNF-α, KC; test: Colitis Study E: cytokine levels in colon (multiplex ELISA); type: in vivo, Swiss Webb mice; details: Colitis Study E, day 7
Protocol: as §1
The cytokine levels of IFN-γ, IL-10, IL-12, IL-1β, IL-2, IL-4, IL-5, TNF-α, and keratinocyte chemoattractant (KC) were measured in the colon of the mice groups at the end of the study on day 7 after DSS was administered. Colons were homogenized on ice in PBS supplemented with protease inhibitors (Sigma, St. Louis, Mo.) and extracted with rotation at 4° C. for 1 hour. After removal of insoluble material by centrifugation, colon homogenates were used for the cytokine analysis by multiplex ELISA (Mouse TH1/TH2 9-Plex Ultra-Sensitive Kit, Meso Scale Discovery, Gaithersburg, Md.) according to the manufacture's protocol. Cytokine levels in colon extracts were normalized to the protein concentration measured by protein assay kit (BioRad, Hercules, Calif.). The levels of pro-inflammatory cytokines, IFN-γ, IL-1β, IL-10, IL-2, IL-5, TNF-α, and KC were elevated by DSS administration, and were decreased by treatment with ISIS 404071.

[16] = DSS-induced colitis, day 7, 20 mg/kg s.c. twice a week for 3 weeks, expressed as a percentage of the PBS control
[17] = increase over PBS control weight before start of treatment

CCATAGAACAGCTTCACAGG (e[5mC]*e[5mC]*eA*eT*eA*dG*dA*dA*d[5mC]*dA*dG*d[5mC]*dT*dT*d[5mC]*eA*e[5mC]*eA*eG*eG) [ISIS 403102, 5-10-5 MOE gapmer targeting murine Factor VII, reference compound]
Average no. of paws affected ([1]; in mice diagnosed with arthritis): 1 | % of paws affected ([1]; out of 60 paws per group): 19% | % of CIA ([1]; percentage of mice in group with CIA at day 40): 54% | Clinical severity of CIA ([1]; score of Marty et al., maximum 22 points): 4 | colon histology, lesions (in words) [2]: shows the same histology as the DSS control | body weight (in words) ([3]; Colitis Study A, FIG. 7A/7B): had a decrease in body weight | colon length (in words) ([3]; Colitis Study A, FIG. 7C): had a decrease in colon length | Body weight change [3, 16]: −7% | Colon length change [3, 16]: −34%

GGTGCACAGTTTCTGGCAGG (all C 5-methyl, all phosphorothioate, sugars by position not given here; MOE gapmer) [ISIS 413481, 5-10-5 MOE gapmer]
ALT [4]: 54 IU/L | AST [4]: 80 IU/L | Albumin [4]: 4 | Bilirubin [4]: 0.22 mg/dL | HCT [5]: 43% | Hemoglobin [5]: 14.2 g/dL | Lymphocyte [5]: 12707 | Neutrophil [5]: 1046 | Platelets [5]: 552 | RBC [5]: 7.5 | WBC [5]: 14 | ALT [6]: 85 IU/L | AST [6]: 143 IU/L | Albumin [6]: 3.2 | Bilirubin [6]: 0.18 mg/dL | Cholesterol [6]: 153 mg/dL | creatinine [7]: 45 mg/dL | BUN ([7]; plasma): 26 mg/dL | Total urine protein ([7]; total urine samples): 148 mg/dL | Urine protein/creatinine ratio ([7]; total urine samples): 3.6 | BUN [8]: 23 mg/dL | Body weight [9, 17]: 147 g | Kidney weight ([9]; percentage of the body weight): 0.9% | Liver weight ([9]; percentage of the body weight): 5% | Spleen weight ([9]; percentage of the body weight): 0.3% | Body weight [10, 17]: 9 g | Kidney weight ([10]; percentage of the body weight): 1.5% | Liver weight ([10]; percentage of the body weight): 6% | Spleen weight ([10]; percentage of the body weight): 0.5% | HCT [11]: 45% | Hemoglobin [11]: 13 g/dL | Lymphocyte [11]: 4329 cells/μL | Monocytes [11]: 204 cells/μL | Neutrophil [11]: 1904 cells/μL | Platelets [11]: 841 10^3/μL | RBC [11]: 9 10^6/μL | WBC [11]: 7 10^3/μL

recombinant Factor XI protein: recombinant human Factor XI protein (Haematologic Technologies Inc.)
TAT levels (in words) [12]: near restoration of TAT levels to that of the DSS treated mice | bradykinin levels (in words) (bradykinin): restoration of bradykinin levels to that of the DSS treated mice | colon length (in words) [13]: increase in colon length due to treatment with ISIS 404071 is eliminated | stool softness/diarrhea (in words) [13]: amelioration of diarrhea in mice treated with ISIS 404071 is eliminated | CD40L levels in plasma (in words) [14]: restoration of CD40L levels to that of the DSS treated mice | pro-inflammatory cytokine levels in colon: IFN-γ, IL-1β, IL-10, IL-2, IL-5, TNF-α, KC (in words) [15]: restoration of cytokine levels to that of the DSS treated mice
